From patent US11390617B2, “Methods of treating non-Hodgkin lymphoma using 2-(2,6-dioxopiperidin-3-yl)-4-((2-fluoro-4-((3-morpholinoazetidin-1-yl)methyl)benzyl)amino)isoindoline-1,3-dione” (Celgene Corporation, priority 2019, dated 2022)

How the values were obtained:
Assay in all cases: NHL cell line viability/apoptosis 384-well flow cytometry assay
Assay type in all cases: cell-based
[1] = test system: CARNAVAL; details: CARNAVAL (DLBCL), 120 hours
Experimental: (§1) The following exemplary anti-proliferative assay uses exemplary non-Hodgkin lymphoma (NIL) cell lines (including diffuse large B-cell lymphoma (DLBCL), follicular lymphoma (FL), and mantle cell lymphoma (MCL)) (Table 5). The in vitro growth inhibitory activity of Compound 1 described herein was evaluated using a 384-well flow cytometry assay.
(§2) The cell lines in Table 5 were plated in 384-well flat bottom plates and assessed with increasing concentrations of compound ranging from 0.00015 to 10 μM or dimethyl sulfoxide (DMSO) control. The final concentration of DMSO was 0.1% (v/v). Following the addition of Compound 1 or DMSO and incubation for 120 hours, cell number and cell death were analyzed by flow cytometry (Attune®, Thermo Fisher) using Annexin V and the live-cell impermeant DNA dye, DRAQ7. Phosphatidylserine translocates from the inner layer to the outer layer of the cell membrane early in apoptosis and Annexin V binds to the exposed phosphatidylserine found on the surface of an apoptotic cell. The vital dye DRAQ7 is excluded by intact live cells and only stains cells that have died as a result of apoptosis or necrosis.
(§3) Flow cytometry data analysis was then performed using the Flow Jo_v10 software to determine the number of viable cells (Annexin V and DRAQ7 double negative staining cells) and percentage of apoptotic cells (Annexin V positive cells) for each condition. The live cell count for every concentration was normalized to the DMSO control (considered as 100%) to calculate the percentage of viable cells remaining after treatment and graphed using GraphPad Prism 7.03. The IC50 (50% inhibitory concentration) and Emax (maximum efficacy achieved) values were then calculated by performing nonlinear regression curve fitting using log(inhibitor) vs. normalized response—variable slope analysis on GraphPad Prism 7.03. Area under the curve (AUC) was calculated by performing area under curve analysis on GraphPad Prism 7.03. Similarly, for apoptosis analysis, the percentage of apoptosis combining both “early” (Annexin V positive and DRAQ7 negative) and “late” apoptosis (Annexin V and DRAQ7 positive) cell gates relative to DMSO was graphed using GraphPad Prism 7.03. The AUC, EC50 (concentration of Compound 1 that produces half-maximal apoptosis response) and Ymax (maximal percentage of apoptosis achieved) values from apoptosis curves were calculated by performing area under curve analysis and nonlinear regression curve fitting using log(agonist) vs. normalized response—Variable slope analysis on GraphPad Prism 7.03.
(§4) In Table 6, dose-response proliferation curves for the panel of NHL cell lines and non-linear curve-fit regression were used to determine IC50, AUC, and Emax for % viable cells (Emax for viability varies between 100 at low doses and 0 at high doses, which corresponds to inhibition of all viable cells), and dose-response apoptosis curves were used to determine the EC50, AUC, and Ymax for % apoptosis (Ymax for apoptosis varies from 0 at low doses and 100 at higher doses which corresponds to death of all cells). Tumor cells were exposed to serial dilutions (0.00015 to 10 μM) of Compound 1 or dimethyl sulfoxide (DMSO) control for 5 days. Viability and apoptosis for all cell lines was determined by Annexin V/[…] flow cytometry.

[2] = test system: DOHH2; details: DOHH2 (FL), 120 hours
Experimental: as §1, §2, §3, §4

[3] = test system: KARPAS-422; details: KARPAS-422 (DLBCL), 120 hours
Experimental: as §1, §2, §3, §4

[4] = test system: NU-DHL-1; details: NU-DHL-1 (DLBCL), 120 hours
Experimental: as §1, §2, §3, §4

[5] = test system: RC-K8; details: RC-K8 (DLBCL), 120 hours
Experimental: as §1, §2, §3, §4

[6] = test system: Rec-1; details: Rec-1 (MCL), 120 hours
Experimental: as §1, §2, §3, §4

[7] = test system: STR428; details: STR428 (DLBCL), 120 hours
Experimental: as §1, §2, §3, §4

[8] = test system: SU-DHL-2; details: SU-DHL-2 (DLBCL), 120 hours
Experimental: as §1, §2, §3, §4

[9] = test system: SU-DHL-5; details: SU-DHL-5 (DLBCL), 120 hours
Experimental: as §1, §2, §3, §4

[10] = test system: TMD8; details: TMD8 (DLBCL), 120 hours
Experimental: as §1, §2, §3, §4

[11] = test system: U-2940; details: U-2940 (DLBCL), 120 hours
Experimental: as §1, §2, §3, §4

[12] = test system: ULA; details: ULA (DLBCL), 120 hours
Experimental: as §1, §2, §3, §4

[13] = read-out: IC50 (% Viable Cells)
[14] = Homo sapiens, read-out: IC50 (% Viable Cells)

O=C1CC[C@H](N2C(=O)c3cccc(NCc4ccc(CN5CC(N6CCOCC6)C5)cc4F)c3C2=O)C(=O)N1 [Compound 1, (S)-2-(2,6-dioxopiperidin-3-yl)-4-((2-fluoro-4-((3-morpholinoazetidin-1-yl)methyl)benzyl)amino)isoindoline-1,3-dione]
AUC (% Viable Cells) [1]: 110.6 | AUC (Apoptosis) [1]: 708.7 | EC50 [1]: 152 nM | Emax (% Viable Cells) [1]: 7.134% | Ymax (Apoptosis) [1]: 77.84% | IC50 [1, 13]: 9.12 nM | AUC (% Viable Cells) [2]: 6.902 | AUC (Apoptosis) [2]: 923.9 | Emax (% Viable Cells) [2]: 0.2066% | Ymax (Apoptosis) [2]: 95.1% | EC50 ([2]; Homo sapiens, DOHH-2): 17.5 nM | IC50 ([2]; Homo sapiens, DOHH-2, read-out: IC50 (% Viable Cells)): 2.8 nM | EC50 ([3]; Homo sapiens): 46.1 nM | IC50 [3, 14]: 13.1 nM | AUC (% Viable Cells) [3]: 19.97 | AUC (Apoptosis) [3]: 911.9 | Emax (% Viable Cells) [3]: 0.8721% | Ymax (Apoptosis) [3]: 93.99% | EC50 ([4]; Homo sapiens): 1.27 nM | IC50 [4, 14]: 1.07 nM | AUC (% Viable Cells) [4]: 12.37 | AUC (Apoptosis) [4]: 981.8 | Emax (% Viable Cells) [4]: 0.4919% | Ymax (Apoptosis) [4]: 99.17% | EC50 ([5]; Homo sapiens, RCK8): 74.3 nM | IC50 ([5]; Homo sapiens, RCK8, read-out: IC50 (% Viable Cells)): 3.37 nM | AUC (% Viable Cells) [5]: 115.7 | AUC (Apoptosis) [5]: 349.2 | Emax (% Viable Cells) [5]: 10.06% | Ymax (Apoptosis) [5]: 26.31% | EC50 ([6]; Homo sapiens, Rec1): 9.26 nM | IC50 ([6]; Homo sapiens, Rec1, read-out: IC50 (% Viable Cells)): 32 nM | AUC (% Viable Cells) [6]: 281.8 | AUC (Apoptosis) [6]: 508.5 | Emax (% Viable Cells) [6]: 21.04% | Ymax (Apoptosis) [6]: 57.27% | AUC (% Viable Cells) [7]: 43.48 | AUC (Apoptosis) [7]: 905.9 | EC50 [7]: 102 nM | Emax (% Viable Cells) [7]: 1.227% | Ymax (Apoptosis) [7]: 95.17% | IC50 [7, 13]: 94.7 nM | EC50 ([8]; Homo sapiens): 6.24 nM | IC50 [8, 14]: 1.26 nM | AUC (% Viable Cells) [8]: 5.586 | AUC (Apoptosis) [8]: 928.4 | Emax (% Viable Cells) [8]: 0.2145% | Ymax (Apoptosis) [8]: 95.98% | EC50 ([9]; Homo sapiens): 3.6 nM | IC50 [9, 14]: 2.39 nM | AUC (% Viable Cells) [9]: 1.873 | AUC (Apoptosis) [9]: 934.1 | Emax (% Viable Cells) [9]: 0.1398% | Ymax (Apoptosis) [9]: 95.23% | EC50 ([10]; Homo sapiens): 6.17 nM | IC50 [10, 14]: 2.46 nM | AUC (% Viable Cells) [10]: 4.187 | AUC (Apoptosis) [10]: 963.3 | Emax (% Viable Cells) [10]: 0.245% | Ymax (Apoptosis) [10]: 97.2% | EC50 ([11]; Homo sapiens): 31.4 nM | IC50 [11, 14]: 6.31 nM | AUC (% Viable Cells) [11]: 70.43 | AUC (Apoptosis) [11]: 792.5 | Emax (% Viable Cells) [11]: 5.192% | Ymax (Apoptosis) [11]: 82.19% | AUC (% Viable Cells) [12]: 0.5518 | AUC (Apoptosis) [12]: 995.3 | EC50 [12]: 1.79 nM | Emax (% Viable Cells) [12]: 0.02523% | Ymax (Apoptosis) [12]: 99.76% | IC50 [12, 13]: 0.99 nM
